From the OligoGym collection
Where “and” joins values, the source holds several entries; their conditions need not be identical. Equal entries are not always repeated. After the bases stand the sugars from the 5' end (letter, count) and the backbone: PS all phosphorothioate, else s phosphorothioate and o phosphodiester by linkage. Methylation of C is not given here. e = 2'-O-(2-methoxyethyl) (MOE); k = constrained ethyl (cEt); d = 2'-deoxy (DNA)

Biological target: IRF4
Settings: ASO

Sequence	target mRNA inhibition (SK-MEL-28, 4 µM)	target mRNA inhibition (MM.1R, 1 µM)	other results
AAGAGGCGACTGCTGA (sugars k3 d10 k3, PS)	35%		
TGGAGGTCTTTGGGAT (sugars k3 d10 k3, PS)	58%		
TGCTAGGACACAGCTG (sugars k3 d10 k3, PS)	43%		
AGGCTCCTACCCGCCT (sugars k3 d10 k3, PS)	6%		
GCATAGAGCCCGTCGG (sugars k3 d10 k3, PS)	50%		
TCATCCGAAAAGACTG (sugars k3 d10 k3, PS)		16%	
TGTGTCAAAGAGCTTG (sugars k4 d8 k4, PS)	26%		
CAGCATTGGACCCACG (sugars k3 d10 k3, PS)		4%	
ATTTAAGTCATGTGTC (sugars k3 d10 k3, PS)		17%	
CGCCAGCGGGTGAGCA (sugars k3 d10 k3, PS)		19%	
AACCAGCACAGTTCTC (sugars k3 d10 k3, PS)	-18%		
CGCATTGCTAGATTCT (sugars k3 d10 k3, PS)		37% and 27%	target mRNA inhibition (MM.1R, 0.0625 µM): -9%; target mRNA inhibition (MM.1R, 0.25 µM): 4%; target mRNA inhibition (MM.1R, 4 µM): 55%
CCGGACCCCGGAGCAG (sugars k3 d10 k3, PS)	-24%		
GCAGTCAATTGGACGC (sugars k3 d10 k3, PS)	77%		
CCTCCATTCTAACAGA (sugars k3 d10 k3, PS)	-18%		
CTTGATAAAGGCTGAA (sugars kkkdddddddddkeke, PS)		24%	
GTAAAGGTAAAGGCAC (sugars k3 d10 k3, PS)	42%		
TGCCTAGGACTAAGGA (sugars k3 d10 k3, PS)	26%		
GACAAGTGCTAGGATT (sugars k3 d10 k3, PS)	61%		
GGAAGCACTGGCATCG (sugars k3 d10 k3, PS)	55%		
ACACTTTTAGAGAGGA (sugars k3 d9 k3 e1, PS)		29%	
TAAACTTGGCTGTGGG (sugars k3 d10 k3, PS)	27%		
GCGACTGCTGAAAACC (sugars k3 d10 k3, PS)		-4%	
GCCCATGTGAGCTCTT (sugars k3 d10 k3, PS)	50%		
TAGTATGAGAAACGGC (sugars kkkdddddddddkeke, PS)		62%	target mRNA inhibition (MM.1R, 0.074 µM): 8%; target mRNA inhibition (MM.1R, 0.222 µM): 29%; target mRNA inhibition (MM.1R, 0.666 µM): 50%; target mRNA inhibition (MM.1R, 2 µM): 71%
GCATGACAGGGCGAGG (sugars k3 d10 k3, PS)	43%		

Sequence	target mRNA inhibition (SK-MEL-28, 4 µM)	target mRNA inhibition (MM.1R, 1 µM)	other results
GATTATATACTGGTTG (sugars k3 d10 k3, PS)	59%		
CTTGATAAAGGCTGAA (sugars kkdddddddddkekek, PS)		12%	
GGGATTATATACTGGT (sugars kdddddddddkekeke, PS)		29%	
CATGTAAAGTCTGCTG (sugars k3 d10 k3, PS)	58%		
GCACAGGCGCGGACGC (sugars k3 d10 k3, PS)		-6%	
GGCGACGACAGCTGCG (sugars k3 d10 k3, PS)		-15%	
TAAAATGTCACGCCCG (sugars k3 d10 k3, PS)		0%	
TAATACCTACCTGCCC (sugars k3 d10 k3, PS)	4%		
TCTGTAGGGCGACTAA (sugars k3 d10 k3, PS)	65%		
AATGAAGATCCACTAG (sugars k3 d10 k3, PS)	61%		
AAACGACAAGTGGCGC (sugars k3 d10 k3, PS)	21%		
TGCTTGAGGTTTTCCT (sugars k3 d10 k3, PS)	80% and 76%		
CTTAGGAACGAAGAGC (sugars k3 d10 k3, PS)	7%		
AGGATAATATACCCCA (sugars k3 d10 k3, PS)	74%		
TGACAAGAACTGCTGT (sugars k3 d10 k3, PS)	18%		
GCAAGCTGAATGCTCT (sugars k3 d10 k3, PS)	53%		
CACTCATCTTGACATT (sugars k3 d10 k3, PS)	36%		
GAATTTCCATTGGAGG (sugars k3 d10 k3, PS)	43%		
GAATAGGACCCCTATC (sugars k3 d10 k3, PS)		-3%	
TGGATCCTGAGAGTAA (sugars k3 d10 k3, PS)		0%	
TGTGATAGCTGAGCTG (sugars kkdddddddddkdkdk, PS)		47%	
ACACAGCCTCGCCCTC (sugars k3 d10 k3, PS)	20%		
GATGTATACCAACGAC (sugars k3 d10 k3, PS)	68%		
CCGCGCTCATGCCGAA (sugars k3 d10 k3, PS)	45%		
CAAGCATAAAAGGTTC (sugars k3 d10 k3, PS)	29%		
CTGTTACCGATGCTTC (sugars kkdddddddddkekek, PS)		52% and 44%	
